Reference: patent US11833147B2, “Procaspase 3 activation by combination therapy” (The Board of Trustees of the University of Illinois, priority 2012, dated 2023)

Tests used:
[1] = test system: U-937 (lymphoma) cells; test: U-937 (lymphoma) cell death, PAC-1 with second agent; assay type: cell-based; settings: 0-15 μM PAC-1, 0 nM second agent, 8 hours, FIG. 4
Protocol: FIG. 2. Effects of PAC-1 with Etoposide on U-937 (lymphoma) cell death. Dashed lines represent the level of purely additive effects.
FIG. 3. Effects of PAC-1 with Velcade® (bortezomib) on U-937 (lymphoma) cell death. […] Cell death was measured after 6 hours in bortezomib.
FIG. 4. Effects of PAC-1 with staurosporine on U-937 (lymphoma) cell death. […] Cell death was measured after 8 hours in staurosporine.

[2] = in mammals; cited from earlier work
[3] = more active than irinotecan itself; cited from earlier work

Compound: C=CCc1cccc(/C=N/NC(=O)CN2CCN(Cc3ccccc3)CC2)c1O [PAC-1, 2-(4-benzylpiperazin-1-yl)-N-[(2-hydroxy-3-prop-2-enyl-phenyl)methylideneamino]acetamide]
- cell death with PAC-1 alone [1]: Little or no cell death
- safety [2]: safe

Compound: CCc1c2c(nc3ccc(O)cc13)-c1cc3c(c(=O)n1C2)COC(=O)[C@]3(O)CC [SN-38]
- activity relative to irinotecan [3]: 200 times
